Key:
rats = conditions: comparable to nicotinamide, lower than diethylamine; cited from earlier work
[1] = test system: reddening of the skin upon UV-irradiation; test: UV-erythema test (anti-inflammation) with a trial person; format: in vivo; conditions: for Readings of reddening intensities: 15±1 mg gel applied to irradiated skin, lower arm, UV C 150 seconds
Description: The NMN diclofenac salt prepared according to Example 1 was tested in experiments with a trial person in an […] according to Hiramatsu Y et al., Arzneimittel-forschung 1990, vol. 40 (11), 1117, and Wilhelm G, Schweiz. Med. Wochenschrift 1949, vol. 79, 577. The criterion of efficacy was the inhibition of the reddening of the skin upon UV-irradiation during the time of observation.
UV-Erythema Test (Anti-Inflammation):
• Lamp used: UV C lamp (Sylvania, Hg low pressure), 9 W • Irradiated area: circular, […] • Distance from lamp: 10 cm • Time of irradiation: 150 seconds • Site: lower arm, shaven, proximal side • Amount of gel applied to irradiated surface: 15±1 mg 3.5 to 5 minutes after end of irradiation
Readings of reddening intensities at given time intervals (arbitrary units): […]

SMILES | Toxicity (rats) | Readings of reddening intensities ([1]; 40 minutes after start of irradiation) [arbitrary units] | Readings of reddening intensities ([1]; 60 minutes after start of irradiation) [arbitrary units] | Readings of reddening intensities ([1]; 90 minutes after start of irradiation) [arbitrary units] | Readings of reddening intensities ([1]; 120 minutes after start of irradiation) [arbitrary units] | Readings of reddening intensities ([1]; 180 minutes after start of irradiation) [arbitrary units] | Activity in UV-erythema test compared with Voltaren-Emulgel ([1]; comparison with Voltaren-Emulgel (diethylammonium salt of diclofenac))
C[n+]1cccc(C(N)=O)c1 [NMN, N(1)-methylnicotinamide] | low toxicity | – | – | – | – | – | –
C[n+]1cccc(C(N)=O)c1.O=C([O-])Cc1ccccc1Nc1c(Cl)cccc1Cl [NMN-Diclofenac, NMN-Salt of Diclofenac] | – | 1 | 0.5 | 0 | 0.5 | 0.5 | superior activity

From patent publication US20080249140A1, “Quaternary 3 -Amido, N-Methylpyridinium Salts as Anti-Inflammatory Agents” (priority 2005, published 2008)
